Reference: ChEMBL document CHEMBL2380247, “Synthesis and biological evaluation of novel aliphatic amido-quaternary ammonium salts for anticancer chemotherapy: part II” (2013)
Activity calls are given as the source filed them. No cut-off for these calls is given here.

Columns and labels:
[1] = test system: MDA-MB-231; assay: Antiproliferative activity against human MDA-MB-231 cells at 0.3 uM by SRB assay; assay type: functional
[2] = test system: NUGC-3; assay: Antiproliferative activity against human NUGC3 cells by SRB assay; assay type: functional
[3] = test system: NUGC-3; assay: Antiproliferative activity against human NUGC3 cells at 1 uM by SRB assay; assay type: functional
[4] = test system: NCI-H23; assay: Antiproliferative activity against human NCI-H23 cells at 0.1 uM by SRB assay; assay type: functional
[5] = test system: ACHN; assay: Antiproliferative activity against human ACHN cells at 0.3 uM by SRB assay; assay type: functional
[6] = test system: MDA-MB-231; assay: Antiproliferative activity against human MDA-MB-231 cells at 0.1 uM by SRB assay; assay type: functional
[7] = test system: NCI-H23; assay: Antiproliferative activity against human NCI-H23 cells at 3 uM by SRB assay; assay type: functional
[8] = test system: NCI-H23; assay: Antiproliferative activity against human NCI-H23 cells by SRB assay; assay type: functional
[9] = target: Rho-related GTP-binding protein RhoB (Homo sapiens) (UniProt P62745); assay: Transactivation of RhoB in human HeLa cells by luciferase reporter assay; assay type: cell-based
[10] = test system: NUGC-3; assay: Antiproliferative activity against human NUGC3 cells at 0.3 uM by SRB assay; assay type: functional
[11] = test system: MDA-MB-231; assay: Antiproliferative activity against human MDA-MB-231 cells at 3 uM by SRB assay; assay type: functional
[12] = test system: NCI-H23; assay: Antiproliferative activity against human NCI-H23 cells at 1 uM by SRB assay; assay type: functional
[13] = test system: HCT-15; assay: Antiproliferative activity against human HCT15 cells at 0.3 uM by SRB assay; assay type: functional
[14] = test system: HCT-15; assay: Antiproliferative activity against human HCT15 cells at 0.1 uM by SRB assay; assay type: functional
[15] = test system: NCI-H23; assay: Antiproliferative activity against human NCI-H23 cells at 10 uM by SRB assay; assay type: functional
[16] = test system: ACHN; assay: Antiproliferative activity against human ACHN cells at 0.1 uM by SRB assay; assay type: functional
[17] = test system: NCI-H23; assay: Antiproliferative activity against human NCI-H23 cells at 0.3 uM by SRB assay; assay type: functional
[18] = test system: PC-3; assay: Antiproliferative activity against human PC3 cells at 3 uM by SRB assay; assay type: functional
[19] = test system: HCT-15; assay: Antiproliferative activity against human HCT15 cells by SRB assay; assay type: functional
[20] = test system: PC-3; assay: Antiproliferative activity against human PC3 cells at 0.1 uM by SRB assay; assay type: functional
[21] = test system: PC-3; assay: Antiproliferative activity against human PC3 cells at 1 uM by SRB assay; assay type: functional
[22] = test system: ACHN; assay: Antiproliferative activity against human ACHN cells at 3 uM by SRB assay; assay type: functional
[23] = test system: MDA-MB-231; assay: Antiproliferative activity against human MDA-MB-231 cells by SRB assay; assay type: functional
[24] = test system: NUGC-3; assay: Antiproliferative activity against human NUGC3 cells at 10 uM by SRB assay; assay type: functional
[25] = test system: MDA-MB-231; assay: Antiproliferative activity against human MDA-MB-231 cells at 10 uM by SRB assay; assay type: functional
[26] = test system: ACHN; assay: Antiproliferative activity against human ACHN cells at 1 uM by SRB assay; assay type: functional
[27] = test system: ACHN; assay: Antiproliferative activity against human ACHN cells by SRB assay; assay type: functional
[28] = test system: HCT-15; assay: Antiproliferative activity against human HCT15 cells at 3 uM by SRB assay; assay type: functional
[29] = test system: MDA-MB-231; assay: Antiproliferative activity against human MDA-MB-231 cells at 1 uM by SRB assay; assay type: functional
[30] = test system: NUGC-3; assay: Antiproliferative activity against human NUGC3 cells at 3 uM by SRB assay; assay type: functional
[31] = test system: PC-3; assay: Antiproliferative activity against human PC3 cells by SRB assay; assay type: functional
[32] = test system: PC-3; assay: Antiproliferative activity against human PC3 cells at 10 uM by SRB assay; assay type: functional
[33] = test system: ACHN; assay: Antiproliferative activity against human ACHN cells at 10 uM by SRB assay; assay type: functional
[34] = test system: PC-3; assay: Antiproliferative activity against human PC3 cells at 0.3 uM by SRB assay; assay type: functional
[35] = test system: HCT-15; assay: Antiproliferative activity against human HCT15 cells at 10 uM by SRB assay; assay type: functional
[36] = test system: NUGC-3; assay: Antiproliferative activity against human NUGC3 cells at 0.1 uM by SRB assay; assay type: functional
[37] = test system: HCT-15; assay: Antiproliferative activity against human HCT15 cells at 1 uM by SRB assay; assay type: functional

Rho-related GTP-binding protein RhoB (Homo sapiens), sequence (P62745 whole entry): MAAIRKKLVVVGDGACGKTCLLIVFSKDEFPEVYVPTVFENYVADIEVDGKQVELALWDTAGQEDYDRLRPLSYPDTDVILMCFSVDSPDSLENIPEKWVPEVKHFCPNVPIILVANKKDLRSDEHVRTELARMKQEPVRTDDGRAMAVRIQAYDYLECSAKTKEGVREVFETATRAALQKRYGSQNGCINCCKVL

GI50 [8] [nM]	Activity [9]	GI50 [19] [nM]	Structure (SMILES)	growth, % of control at 0.3 µM [1] [%]	GI50 [2] [nM]	growth, % of control at 1 µM [3] [%]	growth, % of control at 0.1 µM [4] [%]	growth, % of control at 0.3 µM [5] [%]	growth, % of control at 0.1 µM [6] [%]	growth, % of control at 3 µM [7] [%]	growth, % of control at 0.3 µM [10] [%]	growth, % of control at 3 µM [11] [%]	growth, % of control at 1 µM [12] [%]	growth, % of control at 0.3 µM [13] [%]	growth, % of control at 0.1 µM [14] [%]	growth, % of control at 10 µM [15] [%]	growth, % of control at 0.1 µM [16] [%]	growth, % of control at 0.3 µM [17] [%]	growth, % of control at 3 µM [18] [%]	growth, % of control at 0.1 µM [20] [%]	further results
1710	Active	1730	CCCCCCCCCCCCCCCCCC(=O)NCC(C)(C)C[N+](C)(C)C	78.8	450	46.7	97.1	79.6	78.5	47.4	72.3	41.6	86.3	91.8	97.1	21.5	86.5	95.3	-38.6	84.1	growth, % of control at 1 µM [21]: 11.9%; growth, % of control at 3 µM [22]: 43.5%; GI50 [23]: 1210 nM; growth, % of control at 10 µM [24]: 26.4%; growth, % of control at 10 µM [25]: 26.8%; growth, % of control at 1 µM [26]: 71.3%; GI50 [27]: 2300 nM; growth, % of control at 3 µM [28]: 46%; growth, % of control at 1 µM [29]: 70.9%; growth, % of control at 3 µM [30]: 17.7%; GI50 [31]: 240 nM; growth, % of control at 10 µM [32]: -47%; growth, % of control at 10 µM [33]: 45.8%; growth, % of control at 0.3 µM [34]: 76.1%; growth, % of control at 10 µM [35]: 27.5%; growth, % of control at 0.1 µM [36]: 79.4%; growth, % of control at 1 µM [37]: 81.1%
1440	Active	3700	CCCCCCCCCCCCCC(=O)NCC(C)(C)C[N+](C)(C)C	103	840	84.7	147	96.2	98.5	48.3	104	44	104	101	102	-26.6	94.5	109	-13	97.9	growth, % of control at 1 µM [21]: 64.1%; growth, % of control at 3 µM [22]: 83.8%; GI50 [23]: 1310 nM; growth, % of control at 10 µM [24]: -33.6%; growth, % of control at 10 µM [25]: -11%; growth, % of control at 1 µM [26]: 95.1%; GI50 [27]: 3120 nM; growth, % of control at 3 µM [28]: 92.5%; growth, % of control at 1 µM [29]: 90.2%; growth, % of control at 3 µM [30]: 16.2%; GI50 [31]: 510 nM; growth, % of control at 10 µM [32]: -44.4%; growth, % of control at 10 µM [33]: 28.7%; growth, % of control at 0.3 µM [34]: 94.5%; growth, % of control at 10 µM [35]: 33.1%; growth, % of control at 0.1 µM [36]: 103%; growth, % of control at 1 µM [37]: 97.9%
920	Active	1470	CCCCCCCCCCCCCC(=O)N(C)CC[N+](C)(C)C	94.7	220	22.5	99.8	73.3	98.5	36.1	70.9	26.6	79.7	90.4	91	4.1	84.4	80.1	-4.8	96.6	growth, % of control at 1 µM [21]: 38.4%; growth, % of control at 3 µM [22]: 9.6%; GI50 [23]: 800 nM; growth, % of control at 10 µM [24]: -11.9%; growth, % of control at 10 µM [25]: 5.2%; growth, % of control at 1 µM [26]: 34.4%; GI50 [27]: 260 nM; growth, % of control at 3 µM [28]: 53.1%; growth, % of control at 1 µM [29]: 74.2%; growth, % of control at 3 µM [30]: -3.9%; GI50 [31]: 410 nM; growth, % of control at 10 µM [32]: -21.7%; growth, % of control at 10 µM [33]: -15.9%; growth, % of control at 0.3 µM [34]: 96.4%; growth, % of control at 10 µM [35]: 19.2%; growth, % of control at 0.1 µM [36]: 100%; growth, % of control at 1 µM [37]: 82.4%
1540	Active	1310	CCCCCCCCCCCCCCCC(=O)N(C)CC[N+](C)(C)C	100	170	26.8	101	85.9	106	58	57.7	41.4	83.7	102	99.9	0	87.9	102	3.5	96	growth, % of control at 1 µM [21]: 37.3%; growth, % of control at 3 µM [22]: 31.9%; GI50 [23]: 1140 nM; growth, % of control at 10 µM [24]: -19.4%; growth, % of control at 10 µM [25]: -1.2%; growth, % of control at 1 µM [26]: 42%; GI50 [27]: 450 nM; growth, % of control at 3 µM [28]: 45.2%; growth, % of control at 1 µM [29]: 81.6%; growth, % of control at 3 µM [30]: -0.9%; GI50 [31]: 370 nM; growth, % of control at 10 µM [32]: -15.8%; growth, % of control at 10 µM [33]: -19.1%; growth, % of control at 0.3 µM [34]: 87.9%; growth, % of control at 10 µM [35]: 15.8%; growth, % of control at 0.1 µM [36]: 77.8%; growth, % of control at 1 µM [37]: 79.6%
960	Active	1980	CCCCCCCCCCCCCCCC(=O)N(C)CCC[N+](C)(C)C	96.1	190	4.68	98.7	86.8	97.7	33.7	68	46.6	76.5	99.1	98.7	-14.1	91.6	99.2	0.07	106	growth, % of control at 1 µM [21]: 47.2%; growth, % of control at 3 µM [22]: 39.5%; GI50 [23]: 1420 nM; growth, % of control at 10 µM [24]: -38.4%; growth, % of control at 10 µM [25]: 21.7%; growth, % of control at 1 µM [26]: 58.9%; GI50 [27]: 760 nM; growth, % of control at 3 µM [28]: 54%; growth, % of control at 1 µM [29]: 76.6%; growth, % of control at 3 µM [30]: -31.9%; GI50 [31]: 490 nM; growth, % of control at 10 µM [32]: -16.5%; growth, % of control at 10 µM [33]: 1.49%; growth, % of control at 0.3 µM [34]: 108%; growth, % of control at 10 µM [35]: 29.6%; growth, % of control at 0.1 µM [36]: 97%; growth, % of control at 1 µM [37]: 82.7%
1340	Active	> 10000	CCCCCCCCCCCCCCCC(=O)NCC(C)(C)C[N+](C)(C)CC	99.8	430	38.1	108	92.4	94.4	43.1	90.9	46.6	85.6	103	107	3.85	93.7	101	4.52	103	growth, % of control at 1 µM [21]: 38.5%; growth, % of control at 3 µM [22]: 58.9%; GI50 [23]: 1540 nM; growth, % of control at 10 µM [24]: 1.32%; growth, % of control at 10 µM [25]: 18.4%; growth, % of control at 1 µM [26]: 87.4%; GI50 [27]: 2600 nM; growth, % of control at 3 µM [28]: 85.2%; growth, % of control at 1 µM [29]: 82.7%; growth, % of control at 3 µM [30]: 13.8%; GI50 [31]: 440 nM; growth, % of control at 10 µM [32]: -11.9%; growth, % of control at 10 µM [33]: 34.5%; growth, % of control at 0.3 µM [34]: 94.2%; growth, % of control at 10 µM [35]: 57%; growth, % of control at 0.1 µM [36]: 91.8%; growth, % of control at 1 µM [37]: 99.5%
